Measurements as given in patent US10494365B2, “Small molecule inhibitor of 3-phosphoglycerate dehydrogenase and uses thereof” (The Scripps Research Institute, priority 2015, dated 2019).
Entries after “also recorded” stand apart in the source; their conditions may differ.

Assays:
[1] = test system: lactate dehydrogenase (LDH); experiment: LDH assay (kit, recombinant enzyme); format: biochemical; details: at concentrations consistent with the PHGDH IC50 / drug concentrations used in cells
Description: (§1) Enzyme activities were assayed using kits (LDH: Sigma MAK06; MDH1: Sigma MAK196-1KT) according to the manufacturer's instructions with commercially available recombinant enzyme (LDH: Sigma 59747; MDH1: Sigma SRP6103).

[2] = molecular target: T1, MDH1 (Homo sapiens, UniProt P40925); experiment: MDH1 assay (kit, recombinant enzyme); format: biochemical; details: at concentrations consistent with the PHGDH IC50
T1 construct: purchased Sigma SRP6103
T1 sequence (P40925 1-334): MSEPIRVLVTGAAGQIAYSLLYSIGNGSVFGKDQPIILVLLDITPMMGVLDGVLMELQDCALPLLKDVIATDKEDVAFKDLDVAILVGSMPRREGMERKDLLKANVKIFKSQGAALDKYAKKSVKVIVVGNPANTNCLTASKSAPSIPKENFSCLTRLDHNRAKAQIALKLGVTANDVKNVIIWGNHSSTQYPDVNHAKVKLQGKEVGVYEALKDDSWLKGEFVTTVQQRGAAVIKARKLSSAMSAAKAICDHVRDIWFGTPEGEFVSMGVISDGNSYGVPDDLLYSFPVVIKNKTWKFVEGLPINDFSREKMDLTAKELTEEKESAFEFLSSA
Description: as §1

[3] = test system: Carney cells; experiment: Acute drug treatment with 13C6-glucose tracing (GCMS, LC-MS/MS); format: cell-based; details: acute treatment; for serine labeling: dose response
Description: (§2) Carney cells acclimated to growth in MEM (Corning) were plated at 9×10^5 cells per 6 cm dish the night before. The following morning, media was replaced with fresh media containing (1) (1 μM, 15 μM, 30 μM) or vehicle control (DMSO) for 1h. Media was then aspirated, cells were washed with PBS, and fresh glucose free MEM (Gibco) supplemented with ^13C6-glucose (3 g/L, Cambridge Isotopes) and 10% dialyzed FBS containing drug or DMSO was added. After 2h, cells were quickly washed with cold PBS on ice and flash frozen. Polar metabolites were extracted as in the GCMS methods.
(§3) Polar metabolites were extracted with 2 ml MeOH/H2O (4:1) for 30 min on dry ice, scraped, transferred to 2 ml tubes, centrifuged (30 min, 15000 rpm), and the supernatants dried under vacuum. Samples were derivatized as previously described and analyzed on an Agilent 6890 GC instrument. Metabolite quantification was inferred from a standard curve and fractional enrichment of ^13C in metabolites was corrected for the natural abundance of ^13C and ^15N.
(§4) Polar metabolites were extracted and dried as in the GCMS method. Samples were resuspended in 15 μl of HPLC grade water. 5 μl of each sample was injected and analyzed using a 5500 QTRAP triple quadrupole mass spectrometer (AB/Sciex) coupled to a Prominence UFLC system (Shimadzu) as reported previously.
(§5) Newly synthesized serine has a mass-shift of 3 (M+3) due to the incorporation of glucose-derived ^13C via 3-PG. The kinetics of serine labeling were investigated.

[4] = test system: cells; experiment: as above; format: cell-based; details: LC-MS/MS, greater panel of metabolites
Description: as §2, §3, §4, §5

[5] = test system: MCF7 cells; experiment: Proliferation assay, MCF7; format: cell-based
Description: (§6) Cells were plated at a low density in 96 or 24 well plates in serine containing media. The following day, media was aspirated, cells were washed with PBS, and fresh serine replete or deplete media containing drug (15 μM, 30 μM) or vehicle (DMSO) was added. Cells were grown for 3 to 5 days, with drug and media changed daily before assaying relative cell numbers.

[6] = test system: LDH; experiment: Cross-linking assay, LDH; details: BS3 cross-linking, SDS-PAGE
Description: (§7) Samples were run on SDS-PAGE and colloidal coomassie stained (Bio-Rad).

[7] = test system: MDA-MB-468 (468) breast cancer cells; experiment: LC-MS/MS metabolite profiling versus PHGDH knockdown; format: cell-based; details: 30 μM, 24 hours
Description: MDA-MB-468 (468) breast cancer cells (PHGDH amplified) were grown in DMEM supplemented with FBS (10%), penicillin, and streptomycin. 468 cells stably expressing PHGDH knockdown constructs were generated by infecting 468 cells with lentivirus harboring pLKO.1 shRNAs against PHGDH (sh29) or (sh31) and a nontargeting control (shGFP). Following infections, cells were selected for 2 days using puromycin prior to seeding in 10 cm plates for the experiment. PHGDH knockdown cells (sh29 and sh31) were seeded in 10 cm plates, each in triplicate, and shGFP cells in sextuplet. […] After 24 hours of treatment, the media were aspirated, and cells were washed with cold PBS prior to flash freezing. Subsequently, polar metabolites were extracted with 80% methanol for 30 minutes, scraped, transferred to Eppendorf tubes, centrifuged to remove insoluble matter, and dried. […] Briefly, samples were injected and analyzed using a 5500 QTRAP triple quadrupole mass spectrometer (AB/Sciex) coupled to a Prominence UFLC system (Shimadzu). Approximately 250 metabolites were analyzed by single reaction monitoring (SRM).

[8] = molecular target: T2, PHGDH (Homo sapiens, UniProt O43175); details: BS3 cross-linking, SDS-PAGE
T2 sequence (O43175 1-533): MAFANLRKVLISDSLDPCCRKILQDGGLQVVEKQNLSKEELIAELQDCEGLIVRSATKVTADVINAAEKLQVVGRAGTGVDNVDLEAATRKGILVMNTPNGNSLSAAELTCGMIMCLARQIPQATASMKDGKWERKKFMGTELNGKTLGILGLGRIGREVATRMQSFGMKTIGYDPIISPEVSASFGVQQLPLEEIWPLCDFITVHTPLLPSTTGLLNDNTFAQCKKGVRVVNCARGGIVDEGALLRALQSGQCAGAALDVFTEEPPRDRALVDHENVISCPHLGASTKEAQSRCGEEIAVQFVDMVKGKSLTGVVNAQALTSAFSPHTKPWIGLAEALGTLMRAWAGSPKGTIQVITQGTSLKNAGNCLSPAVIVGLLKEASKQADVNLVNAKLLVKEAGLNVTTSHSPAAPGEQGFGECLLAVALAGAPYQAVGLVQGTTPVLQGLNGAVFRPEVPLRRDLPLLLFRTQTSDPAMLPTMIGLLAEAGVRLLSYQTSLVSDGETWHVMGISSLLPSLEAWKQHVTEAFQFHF
Description: as §7

[9] = molecular target: truncated form of PHGDH, which lacks the C-terminal domain (Homo sapiens, UniProt O43175)
Description: (§8) PHGDH activity was measured in 96-well plates by monitoring NADH fluorescence (Ex340 nm/Em460 nm) over time. PSAT1 was included to prevent product inhibition of PHGDH.

[10] = test system: MDA-MB-468, MDA-MB-436, HCC70, and Hs578T; experiment: cells; details: read-out: growth inhibition
Description: as §6

[11] = molecular target: T2, PHGDH; experiment: PHGDH assay (NADH fluorescence, PSAT1 coupled); format: biochemical; set-up: His6; made in house; host or cells: BL21 E. coli
Description: as §8

[12] = test system: MDA-MB-468 cells; experiment: Proliferation assay, MDA-MB-468; format: cell-based
Description: as §6

Compound	effect on lactate dehydrogenase (LDH) [1]	effect on MDH1 [2]	serine labeling ([3]; 15 μM)	serine labeling ([3]; 30 μM)	perturbations in labeling (3-PG, pyruvate, lactate versus serine) ([3]; GCMS)	glycolytic metabolites [4]	sensitivity of proliferation to drug ([5]; serine deplete conditions)	sensitivity of proliferation to drug ([5]; serine replete conditions)	LDH oligomerization state [6]	purine metabolites (AMP, dAMP, IMP, GDP, dGDP, GMP levels) [7]	decrease of intracellular serine levels ([7]; normalized to control treatment) [%]	PHGDH oligomerization state [8]	inhibition of truncated PHGDH [9]	inhibition at 30 µM [10] [%]	time dependence of onset of inhibition ([11]; increasing pre-incubation time of drug and PHGDH)	mode of inhibition ([11]; with respect to both substrates, decreasing Vmax)	effect on proliferation [12]	potency against and selectivity for PHGDH, acid derivative versus parent ([11]; in vitro)
CCOC(=O)c1sc(NC(=O)c2ccco2)c(SC#N)c1C [Compound (1), Ethyl 5-(furan-2-carboxamido)-3-methyl-4-thiocyanatothiophene-2-carboxylate]	no effect; also recorded: does not inhibit	no effect	trended towards a decrease	significantly decreased	specific to serine	unperturbed	partially sensitive	insensitive	No such effect	down regulated	50	shifted the PHGDH equilibrium from the tetrameric to the dimeric state	still inhibited	35 to 60	progressively more potent	non-competitive	–	–
Cc1c(C(=O)O)sc(NC(=O)c2ccco2)c1SC#N [carboxylic acid derivative, 5-(furan-2-carboxamido)-3-methyl-4-thiocyanatothiophene-2-carboxylic Acid]	–	–	–	–	–	–	–	–	–	–	–	–	–	–	–	–	not effective	equally potent
